Laboratory results reported in ChEMBL document CHEMBL5291721, “A preclinical secondary pharmacology resource illuminates target-adverse drug reaction associations of marketed drugs” (Nat Commun, 2023).

Assays:
[1] = target: T1, 5-hydroxytryptamine receptor 2C (Homo sapiens, UniProt P28335)
T1 sequence (P28335 whole entry): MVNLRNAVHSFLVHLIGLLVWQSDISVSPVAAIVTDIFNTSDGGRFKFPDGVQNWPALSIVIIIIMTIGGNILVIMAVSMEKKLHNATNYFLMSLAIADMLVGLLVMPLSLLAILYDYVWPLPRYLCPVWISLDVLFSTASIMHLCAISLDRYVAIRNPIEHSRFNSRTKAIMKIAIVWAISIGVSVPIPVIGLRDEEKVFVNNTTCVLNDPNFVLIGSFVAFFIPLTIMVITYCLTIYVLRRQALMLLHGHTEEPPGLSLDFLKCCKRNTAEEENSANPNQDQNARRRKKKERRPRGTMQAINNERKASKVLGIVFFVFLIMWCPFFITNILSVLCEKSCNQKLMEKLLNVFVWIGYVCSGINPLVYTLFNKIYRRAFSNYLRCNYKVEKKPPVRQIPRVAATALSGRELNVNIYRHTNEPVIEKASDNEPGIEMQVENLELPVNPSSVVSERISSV

[2] = target: Delta-type opioid receptor (Homo sapiens, UniProt P41143)
[3] = target: T2, 5-hydroxytryptamine receptor 1A (Homo sapiens, UniProt P08908); format: functional, cell-based
T2 sequence (P08908 whole entry): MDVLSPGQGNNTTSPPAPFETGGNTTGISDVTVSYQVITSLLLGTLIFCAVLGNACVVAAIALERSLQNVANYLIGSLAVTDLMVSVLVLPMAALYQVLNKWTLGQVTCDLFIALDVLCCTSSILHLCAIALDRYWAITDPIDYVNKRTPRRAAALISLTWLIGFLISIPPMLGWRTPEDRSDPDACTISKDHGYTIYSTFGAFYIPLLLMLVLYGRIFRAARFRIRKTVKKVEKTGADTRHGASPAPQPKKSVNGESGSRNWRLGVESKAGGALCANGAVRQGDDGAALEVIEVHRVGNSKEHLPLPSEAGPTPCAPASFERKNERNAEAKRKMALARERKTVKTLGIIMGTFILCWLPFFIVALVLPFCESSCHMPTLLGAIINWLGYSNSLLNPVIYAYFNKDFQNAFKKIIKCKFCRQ

[4] = target: 3',5'-cyclic-AMP phosphodiesterase 4D (Homo sapiens, UniProt Q08499); format: functional
[5] = target: Histamine H1 receptor (Homo sapiens, UniProt P35367)
[6] = target: Glutamate receptor ionotropic, NMDA 1 (Rattus norvegicus, UniProt P35439)
[7] = target: Gamma-aminobutyric acid receptor subunit alpha-1 (Rattus norvegicus, UniProt P62813); format: functional
[8] = target: Histamine H3 receptor (Homo sapiens, UniProt Q9Y5N1)
[9] = target: T3, Alpha-2B adrenergic receptor (Homo sapiens, UniProt P18089)
T3 sequence (P18089 whole entry): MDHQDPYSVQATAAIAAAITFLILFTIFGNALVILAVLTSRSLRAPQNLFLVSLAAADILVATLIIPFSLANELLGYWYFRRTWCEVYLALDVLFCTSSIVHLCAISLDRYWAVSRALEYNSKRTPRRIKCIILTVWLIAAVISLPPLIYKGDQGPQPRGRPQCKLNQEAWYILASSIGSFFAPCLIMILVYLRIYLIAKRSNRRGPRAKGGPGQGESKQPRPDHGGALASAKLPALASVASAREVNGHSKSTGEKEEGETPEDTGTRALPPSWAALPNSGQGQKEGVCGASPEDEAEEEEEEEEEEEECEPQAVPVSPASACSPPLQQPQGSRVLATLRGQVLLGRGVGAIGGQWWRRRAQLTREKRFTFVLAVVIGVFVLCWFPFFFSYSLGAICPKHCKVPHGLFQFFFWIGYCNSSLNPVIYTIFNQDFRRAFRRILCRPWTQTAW

[10] = target: Melanocortin receptor 3 (Homo sapiens, UniProt P41968)
[11] = target: Adenosine receptor A2a (Homo sapiens, UniProt P29274)
[12] = target: cGMP-inhibited 3',5'-cyclic phosphodiesterase 3A (Homo sapiens, UniProt Q14432); format: functional
[13] = target: T4, Estrogen receptor (Homo sapiens, UniProt P03372)
T4 sequence (P03372 whole entry): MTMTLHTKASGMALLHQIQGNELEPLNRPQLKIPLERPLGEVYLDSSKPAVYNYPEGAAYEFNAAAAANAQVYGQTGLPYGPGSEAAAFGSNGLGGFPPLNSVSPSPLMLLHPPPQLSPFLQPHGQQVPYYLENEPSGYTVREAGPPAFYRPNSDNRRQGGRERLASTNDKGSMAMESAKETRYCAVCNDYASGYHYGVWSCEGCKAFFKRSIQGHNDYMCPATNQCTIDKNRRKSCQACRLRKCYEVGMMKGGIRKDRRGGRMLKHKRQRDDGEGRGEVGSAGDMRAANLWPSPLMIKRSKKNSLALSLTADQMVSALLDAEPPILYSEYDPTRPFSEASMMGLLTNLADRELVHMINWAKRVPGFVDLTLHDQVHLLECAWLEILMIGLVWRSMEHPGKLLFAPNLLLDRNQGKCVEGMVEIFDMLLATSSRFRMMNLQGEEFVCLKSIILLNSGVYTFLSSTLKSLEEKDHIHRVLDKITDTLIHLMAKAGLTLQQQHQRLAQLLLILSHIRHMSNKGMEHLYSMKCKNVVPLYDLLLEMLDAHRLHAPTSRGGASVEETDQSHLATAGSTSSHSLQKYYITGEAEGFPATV
Also: assay procedure not described here.

Chain of 3',5'-cyclic-AMP phosphodiesterase 4D (Q08499 whole entry): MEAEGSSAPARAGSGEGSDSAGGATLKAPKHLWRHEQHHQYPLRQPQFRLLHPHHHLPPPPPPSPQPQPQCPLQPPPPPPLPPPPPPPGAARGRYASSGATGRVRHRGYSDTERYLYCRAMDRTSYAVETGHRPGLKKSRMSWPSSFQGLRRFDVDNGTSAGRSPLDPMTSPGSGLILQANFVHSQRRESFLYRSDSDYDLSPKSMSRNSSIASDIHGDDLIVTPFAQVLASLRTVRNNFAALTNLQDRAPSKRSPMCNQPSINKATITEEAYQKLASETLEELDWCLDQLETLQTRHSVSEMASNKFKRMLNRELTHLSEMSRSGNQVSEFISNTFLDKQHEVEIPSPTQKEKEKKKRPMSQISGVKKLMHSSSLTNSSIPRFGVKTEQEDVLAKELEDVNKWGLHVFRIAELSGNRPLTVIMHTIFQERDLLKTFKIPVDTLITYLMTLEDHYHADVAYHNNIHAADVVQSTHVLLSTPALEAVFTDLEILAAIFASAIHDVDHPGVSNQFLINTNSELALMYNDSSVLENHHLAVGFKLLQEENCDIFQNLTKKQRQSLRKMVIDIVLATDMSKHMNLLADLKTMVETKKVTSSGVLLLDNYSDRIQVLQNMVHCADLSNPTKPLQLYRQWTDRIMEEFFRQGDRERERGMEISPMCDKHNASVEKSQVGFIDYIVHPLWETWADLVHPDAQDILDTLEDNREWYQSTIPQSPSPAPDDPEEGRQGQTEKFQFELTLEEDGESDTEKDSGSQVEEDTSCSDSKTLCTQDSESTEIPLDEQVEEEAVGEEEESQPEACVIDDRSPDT
Chain of Melanocortin receptor 3 (P41968 whole entry): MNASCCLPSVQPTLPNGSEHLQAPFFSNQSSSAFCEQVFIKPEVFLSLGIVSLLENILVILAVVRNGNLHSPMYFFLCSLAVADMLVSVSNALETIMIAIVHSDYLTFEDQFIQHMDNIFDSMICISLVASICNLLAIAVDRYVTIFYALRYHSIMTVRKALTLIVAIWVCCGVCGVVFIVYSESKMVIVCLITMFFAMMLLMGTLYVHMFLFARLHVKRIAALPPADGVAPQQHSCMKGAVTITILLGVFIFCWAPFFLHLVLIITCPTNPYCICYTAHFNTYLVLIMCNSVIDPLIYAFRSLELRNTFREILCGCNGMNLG
Chain of Adenosine receptor A2a (P29274 whole entry): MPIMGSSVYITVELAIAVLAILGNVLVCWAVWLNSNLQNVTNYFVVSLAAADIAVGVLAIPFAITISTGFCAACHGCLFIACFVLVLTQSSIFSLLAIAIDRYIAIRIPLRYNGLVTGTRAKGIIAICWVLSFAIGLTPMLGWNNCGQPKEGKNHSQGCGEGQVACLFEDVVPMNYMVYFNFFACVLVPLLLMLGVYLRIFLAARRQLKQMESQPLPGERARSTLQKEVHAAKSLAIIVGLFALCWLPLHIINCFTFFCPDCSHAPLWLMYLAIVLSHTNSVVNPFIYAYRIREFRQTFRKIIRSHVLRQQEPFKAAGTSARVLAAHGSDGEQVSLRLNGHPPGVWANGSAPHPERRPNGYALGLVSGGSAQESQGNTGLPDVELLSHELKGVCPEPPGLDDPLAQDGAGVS
Chain of Histamine H1 receptor (P35367 whole entry): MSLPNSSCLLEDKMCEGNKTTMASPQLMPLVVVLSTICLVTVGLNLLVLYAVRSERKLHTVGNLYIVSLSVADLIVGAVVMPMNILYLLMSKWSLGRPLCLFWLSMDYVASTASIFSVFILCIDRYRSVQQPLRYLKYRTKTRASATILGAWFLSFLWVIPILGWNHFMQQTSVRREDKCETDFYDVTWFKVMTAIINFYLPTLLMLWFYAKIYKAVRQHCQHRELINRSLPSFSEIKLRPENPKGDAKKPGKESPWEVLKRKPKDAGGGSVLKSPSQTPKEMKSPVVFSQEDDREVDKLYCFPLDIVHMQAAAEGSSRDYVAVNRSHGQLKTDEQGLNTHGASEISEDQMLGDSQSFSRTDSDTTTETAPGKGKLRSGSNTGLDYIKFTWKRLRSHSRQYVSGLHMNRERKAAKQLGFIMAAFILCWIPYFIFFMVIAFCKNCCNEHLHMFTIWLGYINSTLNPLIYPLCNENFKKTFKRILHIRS
Chain of Delta-type opioid receptor (P41143 whole entry): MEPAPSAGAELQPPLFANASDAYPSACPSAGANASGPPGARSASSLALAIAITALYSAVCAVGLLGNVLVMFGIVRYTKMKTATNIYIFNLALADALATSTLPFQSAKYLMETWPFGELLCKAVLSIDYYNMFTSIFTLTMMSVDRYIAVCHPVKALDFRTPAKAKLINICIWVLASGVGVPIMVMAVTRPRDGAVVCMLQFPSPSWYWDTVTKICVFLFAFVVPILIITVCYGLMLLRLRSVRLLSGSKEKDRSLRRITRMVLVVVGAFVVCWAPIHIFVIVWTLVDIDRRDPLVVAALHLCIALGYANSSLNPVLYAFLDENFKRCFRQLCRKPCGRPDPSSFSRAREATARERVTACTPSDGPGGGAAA
Chain of Gamma-aminobutyric acid receptor subunit alpha-1 (P62813 whole entry): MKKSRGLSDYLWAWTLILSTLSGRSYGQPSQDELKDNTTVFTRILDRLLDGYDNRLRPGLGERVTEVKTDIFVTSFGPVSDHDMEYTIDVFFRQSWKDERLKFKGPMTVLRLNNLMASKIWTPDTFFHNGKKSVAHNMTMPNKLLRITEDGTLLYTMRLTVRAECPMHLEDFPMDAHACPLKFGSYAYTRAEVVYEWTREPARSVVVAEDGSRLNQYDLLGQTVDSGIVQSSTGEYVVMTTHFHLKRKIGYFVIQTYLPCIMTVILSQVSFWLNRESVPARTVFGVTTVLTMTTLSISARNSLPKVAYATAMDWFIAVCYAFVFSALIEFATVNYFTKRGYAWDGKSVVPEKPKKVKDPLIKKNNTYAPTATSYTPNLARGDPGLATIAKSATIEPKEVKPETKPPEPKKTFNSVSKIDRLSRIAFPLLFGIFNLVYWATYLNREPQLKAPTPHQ
Chain of Histamine H3 receptor (Q9Y5N1 whole entry): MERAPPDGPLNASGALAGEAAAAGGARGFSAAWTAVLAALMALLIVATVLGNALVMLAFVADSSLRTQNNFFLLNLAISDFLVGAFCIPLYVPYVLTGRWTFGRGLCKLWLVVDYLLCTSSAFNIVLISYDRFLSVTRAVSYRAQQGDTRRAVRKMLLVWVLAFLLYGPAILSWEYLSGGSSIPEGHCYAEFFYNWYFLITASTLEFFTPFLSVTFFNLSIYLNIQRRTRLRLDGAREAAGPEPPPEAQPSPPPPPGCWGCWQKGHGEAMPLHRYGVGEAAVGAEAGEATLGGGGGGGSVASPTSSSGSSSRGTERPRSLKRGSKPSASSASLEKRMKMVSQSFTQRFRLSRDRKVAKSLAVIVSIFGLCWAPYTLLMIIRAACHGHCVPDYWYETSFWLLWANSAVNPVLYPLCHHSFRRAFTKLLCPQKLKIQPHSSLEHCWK
Chain of cGMP-inhibited 3',5'-cyclic phosphodiesterase 3A (Q14432 whole entry): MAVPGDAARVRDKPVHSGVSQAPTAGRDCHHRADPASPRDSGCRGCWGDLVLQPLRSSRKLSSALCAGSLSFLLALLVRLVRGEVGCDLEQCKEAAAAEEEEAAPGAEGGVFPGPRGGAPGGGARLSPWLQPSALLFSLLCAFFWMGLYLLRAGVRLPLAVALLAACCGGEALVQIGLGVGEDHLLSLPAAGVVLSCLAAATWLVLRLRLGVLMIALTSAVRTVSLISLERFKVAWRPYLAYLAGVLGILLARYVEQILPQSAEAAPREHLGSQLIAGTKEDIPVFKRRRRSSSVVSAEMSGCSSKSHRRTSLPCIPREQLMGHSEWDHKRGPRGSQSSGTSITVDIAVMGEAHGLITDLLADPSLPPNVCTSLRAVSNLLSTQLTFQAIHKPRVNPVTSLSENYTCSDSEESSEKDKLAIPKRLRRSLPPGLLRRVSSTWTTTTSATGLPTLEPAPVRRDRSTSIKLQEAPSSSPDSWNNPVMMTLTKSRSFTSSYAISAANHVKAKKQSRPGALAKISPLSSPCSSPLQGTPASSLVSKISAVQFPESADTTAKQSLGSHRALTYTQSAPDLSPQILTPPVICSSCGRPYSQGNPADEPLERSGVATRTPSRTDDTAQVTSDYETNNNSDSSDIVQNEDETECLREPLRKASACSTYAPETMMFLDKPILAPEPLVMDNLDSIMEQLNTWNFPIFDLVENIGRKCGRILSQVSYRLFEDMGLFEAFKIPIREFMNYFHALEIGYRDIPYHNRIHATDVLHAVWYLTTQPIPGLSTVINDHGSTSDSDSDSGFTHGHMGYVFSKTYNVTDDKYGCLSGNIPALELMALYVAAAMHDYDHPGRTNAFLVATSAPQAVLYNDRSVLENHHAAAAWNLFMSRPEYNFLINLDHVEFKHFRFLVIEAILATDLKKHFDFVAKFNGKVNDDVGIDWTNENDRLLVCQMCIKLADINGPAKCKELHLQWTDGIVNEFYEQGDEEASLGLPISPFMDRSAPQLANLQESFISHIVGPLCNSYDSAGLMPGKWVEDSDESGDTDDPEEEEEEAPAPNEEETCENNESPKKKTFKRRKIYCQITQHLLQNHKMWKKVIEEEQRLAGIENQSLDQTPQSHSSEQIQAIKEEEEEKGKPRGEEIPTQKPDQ

| Compound | AC50 [1] | AC50 [2] | AC50 [3] | AC50 [4] | AC50 [5] | AC50 [6] | AC50 [7] | AC50 [8] | AC50 [9] | AC50 [10] | AC50 [11] | AC50 [12] | AC50 [13] |
| --- | --- | --- | --- | --- | --- | --- | --- | --- | --- | --- | --- | --- | --- |
| CC(C)C(=O)c1c(C(C)C)nn2ccccc12 [IBUDILAST] | > 30 µM | > 30 µM | > 30 µM | 0.4 µM | > 30 µM | > 30 µM | 5.7 µM | > 30 µM | > 30 µM | > 30 µM | 17 µM |  |  |
| N#Cc1ccc([C@H]2CCc3cncn32)c(F)c1 [OSILODROSTAT] | > 10 µM | > 10 µM |  | > 10 µM | 10 µM | > 10 µM | > 10 µM | > 10 µM | > 10 µM | > 10 µM | > 10 µM | > 10 µM |  |
| O=C(O)/C=C/c1ccc(Cn2ccnc2)cc1 [OZAGREL] | > 30 µM | > 30 µM | > 30 µM | > 30 µM | > 30 µM | > 30 µM | > 30 µM | > 30 µM | > 30 µM | > 30 µM | > 30 µM | > 30 µM |  |
| C#C[C@]1(O)CC[C@H]2[C@@H]3CCC4=Cc5oncc5C[C@]4(C)[C@H]3CC[C@@]21C [DANAZOL] | > 30 µM | > 30 µM | > 10 µM |  |  | > 10 µM | > 10 µM | > 10 µM |  | > 10 µM | > 30 µM |  | > 30 µM |
| CN1CCN(CC/C=C2/c3ccccc3Sc3ccc(S(=O)(=O)N(C)C)cc32)CC1 [THIOTHIXENE] | 2.8 µM | > 10 µM |  | 4.1 µM |  | > 10 µM | > 10 µM |  |  | > 30 µM | 11.6 µM | 11 µM | > 30 µM |
| Cc1cccc(C(C)c2cnc[nH]2)c1C (centres undefined) [MEDETOMIDINE] | > 30 µM | > 30 µM | > 30 µM | > 30 µM | > 30 µM | > 10 µM | > 10 µM | > 30 µM | 2.1 µM | > 30 µM | > 30 µM | > 30 µM |  |
| O=C(NCCNCC(O)COc1ccc(O)cc1)N1CCOCC1 (centres undefined) [XAMOTEROL] | > 30 µM | > 30 µM | > 30 µM | > 30 µM | > 30 µM | > 30 µM | > 30 µM | > 30 µM | > 30 µM | > 30 µM | > 30 µM | > 30 µM |  |
| NCC(=O)CCC(=O)O [AMINOLEVULINIC ACID] | > 30 µM | > 30 µM | > 30 µM | > 30 µM | > 30 µM | > 30 µM | > 30 µM | > 30 µM | > 30 µM | > 30 µM | > 30 µM | > 30 µM |  |
| CCCCc1ncc(/C=C(\Cc2cccs2)C(=O)O)n1Cc1ccc(C(=O)O)cc1 [EPROSARTAN] | > 10 µM | > 10 µM | > 10 µM | > 10 µM | > 10 µM | > 10 µM | > 10 µM | > 10 µM | > 10 µM | > 10 µM | > 10 µM | > 10 µM |  |
| Cc1ccc(S(=O)(=O)NC(=O)NN2CC3CCCC3C2)cc1 (centres undefined) [GLICLAZIDE] | > 30 µM | > 30 µM | > 10 µM | > 30 µM |  | > 10 µM | > 10 µM |  |  | > 10 µM | > 10 µM | > 30 µM | > 10 µM |
| NCC[C@H](O)C(=O)N[C@@H]1C[C@H](N)[C@@H](O[C@H]2O[C@H](CN)[C@@H](O)[C@H](O)[C@H]2O)[C@H](O)[C@H]1O[C@H]1O[C@H](CO)[C@@H](O)[C@H](N)[C@H]1O [AMIKACIN] | > 30 µM | > 30 µM | > 10 µM | > 30 µM |  | > 10 µM | > 10 µM |  |  | > 10 µM | > 10 µM | > 30 µM | > 10 µM |
| C/C(O)=C(\C#N)C(=O)Nc1ccc(C(F)(F)F)cc1 [TERIFLUNOMIDE] | > 30 µM | > 30 µM | > 30 µM | > 30 µM | > 30 µM |  | > 30 µM | > 30 µM | > 30 µM | > 30 µM | > 30 µM | > 30 µM |  |
| CC(=O)O[C@H]1CC[C@@]2(C)C(=CC[C@@H]3[C@@H]2CC[C@]2(C)C(c4cccnc4)=CC[C@@H]32)C1 [ABIRATERONE ACETATE] | > 30 µM | > 30 µM | > 30 µM | > 30 µM | > 30 µM |  | > 30 µM | > 30 µM | > 30 µM | > 30 µM | > 30 µM | > 30 µM |  |
| COc1ccc(CCN(C)CCCC(C#N)(c2cc(OC)c(OC)c(OC)c2)C(C)C)cc1OC (centres undefined) [GALLOPAMIL] | 5 µM | > 30 µM | > 30 µM | 9.2 µM | > 30 µM | > 30 µM | > 30 µM | > 30 µM | > 30 µM | > 30 µM | > 30 µM | > 30 µM |  |
| COc1ccc(-c2ccc3cc(C(=O)O)ccc3c2)cc1C12CC3CC(CC(C3)C1)C2 | > 30 µM | > 30 µM | > 30 µM | > 30 µM | > 30 µM | > 30 µM | > 30 µM | > 30 µM | > 30 µM | > 30 µM | > 30 µM | > 30 µM |  |
| CCCc1nc(C(C)(C)O)c(C(=O)OCc2oc(=O)oc2C)n1Cc1ccc(-c2ccccc2-c2nnn[nH]2)cc1 [OLMESARTAN MEDOXOMIL] | > 10 µM | > 10 µM | > 10 µM | 3.9 µM | > 10 µM | > 10 µM | > 10 µM |  | > 10 µM | > 50 µM | > 10 µM | 11 µM |  |
| CC(Oc1c(Cl)cccc1Cl)C1=NCCN1 (centres undefined) [LOFEXIDINE] | > 30 µM | > 30 µM | 1.1 µM | > 30 µM | > 30 µM | > 30 µM | > 30 µM | > 30 µM | 0.74 µM | > 30 µM | > 30 µM | > 30 µM |  |
